Reference: patent publication US5239083A, “Indole derivatives which inhibit steroid 5α reductase” (Kyowa Hakko Kogyo Co., Ltd., priority 1991, dated 1993)

Legend:
[1] = test system: male dd mice; experiment: Acute Toxicity Test (oral, mice); type: in vivo; details: oral 300 mg/kg, mortality observed seven days after administration
Description: Test compounds (300 mg/kg) were orally administered to male dd mice weighing 20±1 g (each group consists of three animals). Minimum lethal dose (MLD) was determined by observing mortality seven days after the administration.

[2] = test system: steroid 5α-reductase; experiment: Inhibition effects on steroid 5α-reductase activity (rat prostate enzyme, [4-14C]-testosterone); type: biochemical, male rats; details: pH 6.5, 37° C., 20 minutes
Description: The measurements of inhibition effects of test compounds on steroid 5α-reductase activity were performed according to the method described by Liang et al. [J. Biol. Chem., 259, 734 (1984)] as follows.
The prostates from male rats were homogenated in three tissue volumes of 20 mM sodium phosphate buffer (pH 6.5; containing 0.32M sucrose and 1 mM dithiothreitol). The homogenate was centrifuged at 140,000 X g for one hour. The precipitate was suspended in the buffer described above and the suspension was centrifuged at 140,000 X g for one hour. The precipitate was resuspended in the buffer described above and the solution (30-50 mg protein/ml) was used as enzyme in following assay.
[4-^14 C]-testosterone (1.5 nmol), NADPH (75 nmol), the enzyme (1 mg protein) and test compound in a total volume of 0.5 ml of 40 mM sodium phosphate buffer [pH 6.5, containing 1 mM dithiothreitol] was incubated at 37° C. After 20 minutes the enzyme activity was stopped by the addition of 2 ml of ethyl acetate. The mixture was then centrifuged at 1,000 g, for 5 minutes. The ethyl acetate layer was transferred to another tube and evaporated to dryness. The steroids were taken up in 50 μl of ethyl acetate and separated by thin layer chromatography (TLC) on silica gel in a developing solvent (ethyl acetate: cyclohexane=1:1). The radioactivity of testosterone and dihydrotestosterone on the TLC plate was measured by a TLC scanner.

| Structure (SMILES) | Acute toxicity (MLD), minimum lethal dose [1] | inhibition rate (%), 10^-7 M [2] |
| --- | --- | --- |
| CCCCC(c1ccccc1)n1ccc2cc(/C(C)=C/C(=O)Nc3ccccc3OCCCC(=O)O)ccc21 (stereo not drawn) [Compound 42, 4-{2-[3-[1-(α-butylbenzyl)indol-5-yl]isocrotonoylamino]phenoxy}butyric acid] | > 300 mg/kg | 89% |
| CCCCCC(c1ccccc1)n1ccc2cc(/C(C)=C/C(=O)Nc3ccccc3OCCCC(=O)O)ccc21 (stereo not drawn) [Compound 43, 4-{2-[3-[1-(α-pentylbenzyl)indol-5-yl]isocrotonoylamino]phenoxy}butyric acid] | > 300 mg/kg | 74% |
| C/C(=C\C(=O)Nc1ccccc1OCCCC(=O)O)c1ccc2c(ccn2C(c2ccccc2)C(C)C)c1 (stereo not drawn) [Compound 44, 4-{2-[3-[1-[α-(2-methylethyl)benzyl]indol-5-yl]isocrotonoylamino]phenoxy}butyric acid] | > 300 mg/kg | 78% |
| C/C(=C\C(=O)Nc1ccccc1OCCCC(=O)O)c1ccc2c(ccn2C2CCCc3ccccc32)c1 (centres unmarked) [Compound 45, 4-{2-[3-[1-(1,2,3,4-tetrahydro-1-naphthyl)indol-5-yl]isocrtonoylamino]phenoxy}butyric acid] | > 300 mg/kg | 77% |
| C/C(=C\C(=O)Nc1ccccc1OCCCC(=O)O)c1ccc2c(ccn2C(c2ccccc2)c2ccccc2C)c1 (centres unmarked) [Compound 52] | > 300 mg/kg | 90% |
| C/C(=C\C(=O)Nc1ccccc1OCCCC(=O)O)c1ccc2c(ccn2C(c2ccccc2)c2ccc(C)cc2)c1 (centres unmarked) [Compound 53] | > 300 mg/kg | 84% |
| C/C(=C\C(=O)Nc1ccccc1OCCCC(=O)O)c1ccc2c(ccn2C(c2ccc(C)cc2)c2ccc(C)cc2)c1 [Compound 54, 4-{2-[3-[1-(4,4'-dimethylbenzhydryl)indol-5-yl]isocrotonoylamino]phenoxy}butyric acid] | > 300 mg/kg | 89% |
